Reference: article PMC7138916 (Pharmacology Research & Perspectives, 2020)
Like-named read-outs stand apart in the source and are kept apart here.

Experiments:
[1] = Rat pharmacokinetic study, IV single bolus; settings: male, Sprague-Dawley, in vivo, iv
[2] = tested on: efflux transporters (eg, P‐gp, BCRP, MRPs); assay: Classification as efflux transporter substrate
[3] = Bidirectional permeability and efflux ratio in Caco‐2 cells; assay type: in vitro ADME, human; settings: human, Caco-2
P‐glycoprotein [4] = settings: digoxin efflux, rat colon; cited from earlier work
[5] = Bidirectional permeability in parental MDCK cells; assay type: in vitro ADME, Canine; settings: dog, MDCK
P‐glycoprotein [6] = settings: digoxin efflux, human colon, cited from earlier work

Vd [1]: 0.376 ± 0.013 L/kg
clearance [1]: 9.1 ± 1.3 mL/min/kg
half-life [1]: 1.3 ± 0.26 h
Efflux transporter substrate ([2]; Yes/No): Yes
Class (based on membrane permeability and ER value) ([2]; parental MDCK, MDR1‐MDCK, and Caco‐2 cell lines): Class II
Papp A→B at 2 h, 5 μmol/L [3]: 0.477 ± 0.088 ×10⁻⁶ cm/s
Papp B→A at 2 h, 5 μmol/L [3]: 23 ± 1.6 ×10⁻⁶ cm/s
Papp A→B at 2 h, 1 μmol/L [5]: 2.22 ± 0.34 ×10⁻⁶ cm/s
Papp B→A at 2 h, 1 μmol/L [5]: 2.73 ± 0.45 ×10⁻⁶ cm/s
Papp at 2 h, 1 μmol/L [5]: 2.48 ± 0.46 ×10⁻⁶ cm/s
Structure (SMILES): C[C@H]1O[C@@H](O[C@H]2[C@@H](O)C[C@H](O[C@H]3[C@@H](O)C[C@H](O[C@H]4CC[C@@]5(C)[C@H](CC[C@@H]6[C@@H]5C[C@@H](O)[C@]5(C)[C@@H](C7=CC(=O)OC7)CC[C@]65O)C4)O[C@@H]3C)O[C@@H]2C)C[C@H](O)[C@@H]1O [Digoxin, digoxin]
J max (maximal net flux) (P‐glycoprotein [4]): 2.2 ± 0.3 nmol/h/cm^2
J max (maximal net flux) (P‐glycoprotein [6]): 3.1 ± 0.8 nmol/h/cm^2
EC50 (P‐glycoprotein [6]; read-out: EC50 (the concentration at which half‐maximal flux was achieved)): 58.7 ± 15.5 µM
